Earlier results on one compound are cited in patent US9622981B2, “Liquid-filled hard gel capsule pharmaceutical formulations” (Mylan Inc., priority 2011, dated 2017).

The conditions of data set [1]: ordinary conditions.
Experiment in data set [2]: not given
This is another data set of the same source.

Consider `C[C@]12C=CC(=O)N[C@@H]1CC[C@@H]1[C@@H]2CC[C@]2(C)[C@@H](C(=O)Nc3cc(C(F)(F)F)ccc3C(F)(F)F)CC[C@@H]12` [Dutasteride, (5α,17β)-N-[2,5 bis(trifluoromethyl)phenyl]-3-oxo-4-azaandrost-1-ene-17-carboxamide], for which the solubility in water result is recorded as “insoluble”. Also, the stability result in data set [1] is recorded as “stable under ordinary conditions”. In addition, in data set [2], the “partition coefficient, Log P” value was 5.609±0.618.
